Measurements as given in EP0965268B1, “Thermostabilization, osmoprotection, and protection against desiccation of enzymes, cell components and cells by di-glycerol-phosphate” (bitop Aktiengesellschaft für biotechnische Optimierung, priority 1998, dated 1999).

How the values were obtained:
[1] = biological target: T1, Desulfovibrio gigas rubredoxin (Megalodesulfovibrio gigas, UniProt P00270); assay: Thermal denaturation of rubredoxin, decrease in absorbance at 494 nm at 90°C; type: biochemical; conditions: 30 min incubation of rubredoxin at 90 °C, without solute 73%
T1 construct: Rubredoxin was obtained and purified as described by LeGall and Dragoni [15] from Desulfovibrio gigas; made in house; host or cells: Desulfovibrio gigas (natural source, not recombinant)
Description: Rubredoxin was obtained and purified as described by LeGall and Dragoni from Desulfovibrio gigas. This protein was then stored at -20°C in 10 mM Tris-HCl buffer at pH 7.6.
The most informative feature of the UV-Vis absorption spectrum of rubredoxins comes from the signals with maxima centered at 380, 494, and 570 nm which are attributed to metal to ligand transitions. These bands are bleached when rubredoxin undergoes de naturation.
In the experiments designed to evaluate denaturation caused by thermal stress, rubredoxin was prepared at a concentration of 84 µg . ml^-1 in 10 mM Tris-HCI buffer pH 7.6 and the incubation mixtures, with or without the additions of solutes, were placed in 400 µl quartz cells in a Beckman spectrophotometer with a thermostated cell compartment. The protein was subjected to a temperature of 90°C and the decrease in the absorbance at 494 nm was monitored as a function of time.
The protective effect of 1,1'-di-glycerol-phosphate (at a concentration of 100 mM) was compared with that of potassium phosphate (100 mM) and glycerol (200 mM) (Figure 4). After 30 min incubation of rubredoxin at 90 °C the absorbance decreased by only 8.5% when 1,1'-di-glycerol-phosphate was present, whereas in the absence of any solute a decrease of 73% was observed. […] In fact, the decreases in absorption are as high as 61 and 58 % in the presence of 200 mM glycerol or 100 mM potassium phosphate, respectively.

[2] = biological target: T2, rabbit muscle lactate dehydrogenase (LDH) (Oryctolagus cuniculus, UniProt P13491); assay: Thermostability of lactate dehydrogenase, residual activity after incubation at 50°C; type: biochemical; conditions: 100 mM solute; 10 min of incubation at 50°C; without solute 30%
T2 construct: Lactate dehydrogenase, LDH (Sigma Type III, rabbit muscle), purchased as a suspension in ammonium sulphate; purchased Sigma Type III; host or cells: rabbit muscle
Description: (§1) Lactate dehydrogenase, LDH (Sigma Type III, rabbit muscle), purchased as a suspension in ammonium sulphate, was centrifuged, the supernatant was discarded, and the enzyme was suspended in 50 mM potassium phosphate pH 7.5. Alcohol dehydrogenase (Sigma, baker's yeast) was obtained in the lyophilized form and used without further purification. Enzymes were assayed using a Beckman spectrophotometer with a the rmostated cell compartment at 30°C.
(§2) In the experiments where thermal stress was imposed, enzymes were prepared at a concentration of 50 mg . ml^-1 in 20 mM potassium phosphate buffer, and the reaction mixtures were placed in Eppendorf tubes, incubated in a water-bath at 50°C for 10 minutes, cooled in an ice-bath and assayed immediately under standard conditions.
(§3) The effect of 1,1'-di-glycerol-phosphate on the thermostability of rabbit muscle LDH and baker's yeast ADH was compared to that of glycerol, a compound that is generally described as an enzyme protector. The percentage of residual activity in relation to pre-incubation activity, measured after 10 min of incubation at 50°C, is shown in Figure 5, for rabbit muscle LDH (A) and yeast ADH (B).
The effect of the concentration of 1,1'-di-glycerol-phosphate on the thermal stability of LDH was also monitored, and the results obtained after 10 min incubation at 50°C are shown in Figure 6. […]

[3] = biological target: T3, yeast alcohol dehydrogenase (ADH) (Saccharomyces cerevisiae, UniProt P00330); assay: Thermostability of alcohol dehydrogenase, residual activity after incubation at 50°C; type: biochemical, baker's yeast; conditions: 10 min incubation at 50°C, without solute 33%
T3 construct: Alcohol dehydrogenase (Sigma, baker's yeast) was obtained in the lyophilized form and used without further purification; purchased Sigma; host or cells: baker's yeast
T3 sequence (P00330 2-348 limits assumed): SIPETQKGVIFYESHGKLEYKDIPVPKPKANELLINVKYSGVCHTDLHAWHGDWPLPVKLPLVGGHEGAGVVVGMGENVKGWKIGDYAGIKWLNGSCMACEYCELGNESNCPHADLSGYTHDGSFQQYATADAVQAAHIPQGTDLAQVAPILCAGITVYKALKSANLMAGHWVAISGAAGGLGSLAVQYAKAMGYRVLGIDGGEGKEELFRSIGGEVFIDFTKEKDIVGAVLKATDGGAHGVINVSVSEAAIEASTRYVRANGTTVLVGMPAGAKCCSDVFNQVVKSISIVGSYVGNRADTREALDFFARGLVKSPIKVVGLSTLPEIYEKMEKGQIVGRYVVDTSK
Description: as §1, §2, §3

T1 sequence (P00270 whole entry): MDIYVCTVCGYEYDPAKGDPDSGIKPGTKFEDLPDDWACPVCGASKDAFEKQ

SMILES	decrease in absorbance at 494 nm ([1]; 100 mM solute) [%]	residual activity in relation to pre-incubation activity [2] [%]	activity retained (of the initial activity) ([3]; 100 mM solute) [%]	decrease in absorbance at 494 nm ([1]; 200 mM solute) [%]	activity retained (of the initial activity) ([3]; 200 mM solute) [%]
O=P(O)(OCC(O)CO)OCC(O)CO (stereo not shown) [1,1'-di-glycerol-phosphate]	8.5	85	88		
OCC(O)CO [glycerol]		37		61	31
O=P(O)(O)O [potassium phosphate]	58				
